According to ChEMBL document CHEMBL5303304, “EUbOPEN Chemogenomics Library - IncuCyte” (2023):

Columns and labels:
Assay type in all cases: toxicity, cell-based
[1] = test system: HEK-293T; assay: Incucyte cell viability with HEK293T; settings: human, 10 µM, compound concentration 10 uM
[2] = test system: Fibroblast; assay: Incucyte cell viability with human fibroblast; settings: 10 µM, compound concentration 10 uM
[3] = test system: U2OS; assay: Incucyte cell viability with U2OS; settings: human, 10 µM, compound concentration 10 uM
Also: unitless GR value; below 1 slowed growth and below 0 cell loss.

SMILES | Growth Rate ([1]; 0 h, replicate number 1) | Growth Rate ([1]; 18 h, replicate number 2) | Growth Rate ([1]; 24 h, replicate number 2) | Growth Rate ([2]; 0 h, replicate number 2) | Growth Rate ([2]; 6 h, replicate number 1) | Growth Rate ([2]; 12 h, replicate number 1) | Growth Rate ([2]; 12 h, replicate number 2) | Growth Rate ([2]; 24 h, replicate number 2) | Growth Rate ([3]; 12 h, replicate number 1) | Growth Rate ([3]; 18 h, replicate number 1) | Growth Rate ([3]; 18 h, replicate number 2) | Growth Rate ([3]; 24 h, replicate number 1) | Growth Rate ([3]; 24 h, replicate number 2) | Growth Rate ([1]; 6 h, replicate number 1) | Growth Rate ([1]; 6 h, replicate number 2) | Growth Rate ([1]; 12 h, replicate number 1) | Growth Rate ([1]; 12 h, replicate number 2) | Growth Rate ([3]; 6 h, replicate number 1) | Growth Rate ([3]; 6 h, replicate number 2) | Growth Rate ([3]; 12 h, replicate number 2) | also measured
CCCCCCCCCCCCCC(=O)O[C@@H]1[C@@H](C)[C@@]2(O)[C@@H](C=C(CO)C[C@]3(O)C(=O)C(C)=C[C@@H]23)[C@@H]2C(C)(C)[C@]12OC(C)=O [PHORBOL MYRISTATE ACETATE] | 0.64 | 0.99 | 0.75 | -0.74 | 0.89 | -1 | 0.09 | 0.78 | 0.98 | 0.96 | 0.92 | 0.96 | 0.72 |  |  |  |  |  |  |  | Growth Rate ([1]; 0 h, replicate number 2): -0.1; Growth Rate ([2]; 6 h, replicate number 2): -1; Growth Rate ([2]; 18 h, replicate number 2): 0.85; Growth Rate ([3]; 0 h, replicate number 2): -1
CNc1nc(NCc2ncccn2)c2c(-c3ccc4ncccc4c3)c[nH]c2n1 |  | 0.8 | 0.86 | -0.54 |  | -0.94 |  |  |  | 0.84 | 0.85 | 0.94 | 0.86 | 0.58 | 0.42 | 0.9 | 0.84 | 0.78 | 0.82 | 0.7 | Growth Rate ([1]; 18 h, replicate number 1): 0.83; Growth Rate ([1]; 24 h, replicate number 1): 0.84; Growth Rate ([2]; 0 h, replicate number 1): -0.08; Growth Rate ([2]; 18 h, replicate number 1): 0.83
CCC(=O)N[C@@H]1CC[C@H](C(=O)N(C)c2ccc(-c3nc4ccccc4o3)cc2)C1 [BI 99990] |  | 0.66 | 0.8 |  |  |  |  | 0.81 | 0.58 |  |  | 0.96 |  | -0.34 | 0.12 | 0.47 | 0.49 | 0.62 | 0.78 | 0.64 | Growth Rate ([1]; 18 h, replicate number 1): 0.8; Growth Rate ([1]; 24 h, replicate number 1): 0.82; Growth Rate ([2]; 24 h, replicate number 1): 0.79
CC(Sc1nc2c(cnn2-c2cccc(Cl)c2)c(=O)[nH]1)C(N)=O (centres undefined) | 1 |  |  | -1 | 0.44 |  |  |  | 0.5 | 0.85 | 0.68 | 0.84 | 0.85 |  |  |  |  | -0.28 | 0.38 | 0.69 | Growth Rate ([1]; 0 h, replicate number 2): 0.66; Growth Rate ([2]; 18 h, replicate number 1): 0.53
O=C1NCCc2c(OCCCCN3CCCCC3)cccc21 | 0.6 |  |  | -0.96 | 0.19 | -0.5 | 0.64 | 0.76 | 0.56 | 0.79 | 0.88 | 0.79 | 0.83 | 0.81 |  |  |  | 0.02 | 0.34 | 0.86 | Growth Rate ([1]; 0 h, replicate number 2): 0.67; Growth Rate ([2]; 0 h, replicate number 1): 0.29; Growth Rate ([2]; 18 h, replicate number 2): 0.79; Growth Rate ([3]; 0 h, replicate number 2): -0.98
CC(C)c1nc2c(c3c1[C@@H](c1ccc(C(F)(F)F)cc1)OC31CCOCC1)[C@@H](O)CC(C)(C)C2.Cl | 0.12 | 0.97 | 0.8 |  | -0.53 | -0.05 | 0.76 | 0.96 |  |  | 0.78 |  | 0.87 |  | 0.11 | 0.73 | 0.61 | 0.88 |  | 0.78 | Growth Rate ([1]; 18 h, replicate number 1): 0.63; Growth Rate ([1]; 24 h, replicate number 1): 0.78; Growth Rate ([2]; 0 h, replicate number 1): -1; Growth Rate ([2]; 18 h, replicate number 1): 0.15; Growth Rate ([2]; 24 h, replicate number 1): 0.49
CN1CCN(c2ccc(-n3cc(-c4ccncc4OCC4CCNCC4)cn3)cc2)CC1 | -0.6 | 0.13 | 0.07 | 0.21 | 0.93 | 0.81 | 0.22 | 0.28 | 0.92 | 0.69 | 0.31 | 0.53 | 0.16 | -0.15 | -0.17 | 0.02 | 0.09 |  | 0.51 | 0.4 | Growth Rate ([1]; 18 h, replicate number 1): 0.14; Growth Rate ([1]; 24 h, replicate number 1): 0.11; Growth Rate ([2]; 0 h, replicate number 1): 0.3; Growth Rate ([2]; 6 h, replicate number 2): 0.33; Growth Rate ([2]; 18 h, replicate number 1): 0.68; Growth Rate ([2]; 18 h, replicate number 2): 0.19; Growth Rate ([2]; 24 h, replicate number 1): 0.62; Growth Rate ([3]; 0 h, replicate number 2): 0.97
